One test addresses T1, ΔF508-CFTR (Homo sapiens, UniProt P13569, DEL508-508).
T1 construct: host or cells: CFBE41o-, doxycycline-inducible
The test is described as follows: CFTR cell surface levels using HRP-tagged ΔF508-CFTR expressing CFBE cells, in the presence of a co-corrector. Format: cell-based. The note with it: HRP-tagged ΔF508-CFTR expressing CFBE cells, in the presence of 3 μM co-corrector; for EC50: read-out: EC50. An outline of the steps: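 Cells were seeded with 0.5 μg/mL doxycycline and held 68 h at 37 °C. Test compounds plus 3 μM co-corrector (final 0.1% DMSO) were then added for 20 h at 33 °C. Washed cells received HRP substrate, and luminescence was normalized between DMSO and 3 μM co-corrector controls.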

Another test addresses T2, CFTR ΔF508 (Homo sapiens, UniProt P13569, DEL508-508).
T2 construct: bronchial epithelial cells isolated from CF patients homozygous for the CFTR ΔF508 mutation; McGill University; Asterand; University of North Carolina hAEC-CF; host or cells: primary human bronchial epithelial cells from CF patients homozygous for ΔF508
Kind of test: Chronic TECC assay on primary bronchial epithelial cells (corrector, co-corrector and potentiator). Format: cell-based. The note with it: chronic TECC, AUC = full area under the curve upon forskolin stimulation, with co-corrector and potentiator, 24 hours. As to the method:
Primary Bronchial Epithelial Cells Protocol
The TECC (Tranepithelial Clamp Circuit, EP-design) assay measures the functionality of the cystic fibrosis Transmembrane Conductance regulator (CFTR) by measuring the short circuit current (Isc) generated over the basolateral and apical membrane of lung epithelial cells. In TECC the transepithelial potential PD and transepithelial resistance (Rt)) are measured in an open circuit and transformed to Ieq using Ohm's law. 24 Wells can be measured simultaneously allowing a higher throughput compared to Ussing chambers.
For this purpose, bronchial epithelial cells isolated from CF patients homozygous for the CFTR ΔF508 mutation (hAEC-CF, Epithelix, Geneva, Switzerland; McGill University, Montreal, Qc; Asterand, Detroit, Mich.; University of North Carolina, Chapel Hill, N.C.) are plated on type IV collagen-coated Transwell® supports (Costar). Human airway epithelia are generated by provision of an air-liquid interface for 21 days to form well-differentiated polarized cultures that resemble in vivo pseudo-stratified ciliated epithelium (Fulcher, M. L., Gabriel, S., Burns, K. A., Yankaskas, J. R., Randell, S. H., 2005. Well-differentiated human airway epithelial cell cultures. Methods Mol. Med. 107, 183-206). The differentiated cells are treated with test corrector compound(s) (corrector alone or in combination with co-corrector, 4-[(2R,4R)-4-({[1-(2,2-difluoro-1,3-benzodioxol-5-yl)cyclopropyl]carbonyl}amino)-7-methoxy-3,4-dihydro-2H-chromen-2-yl]benzoic acid (G924806/A-1618261) (“acute”) or test corrector compounds, co-corrector and potentiator, N-(3-carbamoyl-5,5,7,7-tetramethyl-4,7-dihydro-5H-thieno[2,3-c]pyran-2-yl)-1H-pyrazole-5-carboxamide GLPG1837, (“chronic”) for 24 hours basolaterally to allow sufficient expression of properly folded CFTR protein on the membrane. All compound plates contained negative controls (DMSO) and positive controls (0.15 μM, 4-[(2R,4R)-4-({[1-(2,2-difluoro-1,3-benzodioxol-5-yl)cyclopropyl]carbonyl}amino)-7-(difluoromethoxy)-3,4-dihydro-2H-chromen-2-yl]benzoic acid).
For electrophysiological recording of the “chronic” experiments, the human airway epithelia are mounted in the TECC heating plate for electrophysiological measurement and kept at 37° C. The epithelia are bathed in a NaCl-Ringer solution (120 mM NaCl, 25 mM NaHCO3, 1.2 mM CaCl2, 1.2 mM MgCl2, 0.8 mM KH2PO4, 0.8 mM K2HPO4, pH 7.4, 5 mM glucose) on both the basolateral and apical sides. Test compounds (corrector, co-corrector, 4-[(2R,4R)-4-({[1-(2,2-difluoro-1,3-benzodioxol-5-yl)cyclopropyl]carbonyl}amino)-7-(difluoromethoxy)-3,4-dihydro-2H-chromen-2-yl]benzoic acid, and potentiator, N-(3-carbamoyl-5,5,7,7-tetramethyl-4,7-dihydro-5H-thieno[2,3-c]pyran-2-yl)-1H-pyrazole-5-carboxamide), are re-added to the recording solution prior to measurement. Apical amiloride is used to inhibit the endogenous ENaC currents while forskolin is applied on both apical and basolateral side to stimulate CFTR. Measurements are done during a 20 minute timeframe with recordings every 2 minutes. The increase in Ieq is used as a measure for the increased CFTR activity, EC50 values can be generated by measuring impact of different concentrations of compound on Ieq on primary cells, for this purpose each transwell is treated with a different compound concentration. Inhibitor-172, an inhibitor specific for CFTR, is used to test the specificity of the tested compounds. Raw data were normalized to percentage activity values using the equation: 100×(Sample−Negative control)/(Positive control−Negative Control).

Two compounds from patent US9796711B2, “Substituted pyrazolo[3,4-b]pyridin-6-carboxylic acids and method of use” (AbbVie S.àr.l., priority 2015, dated 2017) can be followed below.

T1 sequence (P13569 with tags, fused parts or gaps DEL508-508): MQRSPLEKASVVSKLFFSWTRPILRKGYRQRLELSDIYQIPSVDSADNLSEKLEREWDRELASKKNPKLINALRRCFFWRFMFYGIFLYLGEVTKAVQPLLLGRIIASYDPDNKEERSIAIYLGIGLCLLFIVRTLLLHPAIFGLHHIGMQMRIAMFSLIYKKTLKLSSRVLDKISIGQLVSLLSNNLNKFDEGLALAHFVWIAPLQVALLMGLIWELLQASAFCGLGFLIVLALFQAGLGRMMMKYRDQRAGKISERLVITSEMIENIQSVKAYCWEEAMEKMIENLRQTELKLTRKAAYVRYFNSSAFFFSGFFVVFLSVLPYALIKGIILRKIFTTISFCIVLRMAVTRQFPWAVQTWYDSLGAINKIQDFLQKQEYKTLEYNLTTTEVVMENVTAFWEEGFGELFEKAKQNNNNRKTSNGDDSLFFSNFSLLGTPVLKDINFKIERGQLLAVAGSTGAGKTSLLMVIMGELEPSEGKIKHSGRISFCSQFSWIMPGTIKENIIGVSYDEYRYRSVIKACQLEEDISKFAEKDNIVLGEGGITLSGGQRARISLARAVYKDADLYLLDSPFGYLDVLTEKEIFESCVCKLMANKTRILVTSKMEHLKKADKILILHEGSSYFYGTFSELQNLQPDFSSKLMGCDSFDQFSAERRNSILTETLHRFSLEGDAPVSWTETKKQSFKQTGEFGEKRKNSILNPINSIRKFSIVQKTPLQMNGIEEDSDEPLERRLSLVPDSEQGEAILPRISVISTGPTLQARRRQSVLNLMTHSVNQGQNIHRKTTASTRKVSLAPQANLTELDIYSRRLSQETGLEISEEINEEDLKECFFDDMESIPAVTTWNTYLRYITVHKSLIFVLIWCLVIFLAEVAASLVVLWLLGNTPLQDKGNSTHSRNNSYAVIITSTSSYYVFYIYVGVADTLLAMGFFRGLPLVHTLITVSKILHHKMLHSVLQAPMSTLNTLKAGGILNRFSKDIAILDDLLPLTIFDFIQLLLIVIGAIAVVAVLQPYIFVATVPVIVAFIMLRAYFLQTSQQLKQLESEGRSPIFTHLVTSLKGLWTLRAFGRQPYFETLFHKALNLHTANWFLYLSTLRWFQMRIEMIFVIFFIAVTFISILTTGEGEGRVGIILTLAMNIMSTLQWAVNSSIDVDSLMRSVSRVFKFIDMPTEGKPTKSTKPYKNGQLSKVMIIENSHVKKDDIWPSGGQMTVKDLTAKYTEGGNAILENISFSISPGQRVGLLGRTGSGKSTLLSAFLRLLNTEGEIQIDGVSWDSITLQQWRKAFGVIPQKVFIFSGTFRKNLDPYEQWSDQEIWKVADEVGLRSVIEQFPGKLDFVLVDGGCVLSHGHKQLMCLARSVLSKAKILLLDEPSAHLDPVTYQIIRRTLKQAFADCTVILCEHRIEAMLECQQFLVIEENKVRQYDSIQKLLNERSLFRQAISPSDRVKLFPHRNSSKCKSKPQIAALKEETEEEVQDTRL
T2 sequence (P13569 with tags, fused parts or gaps DEL508-508): as above

`O=C(O)c1cc(N2CCN(c3ccncc3)CC2)c2c(C3CCC3)nn(C3CCCCC3)c2n1` [compound 809, 3-cyclobutyl-1-cyclohexyl-4-[4-(pyridin-4-yl)piperazin-1-yl]-1H-pyrazolo[3,4-b]pyridine-6-carboxylic acid]: at ΔF508-CFTR, the “% Activation” value worked out at 452.2% and the 50% effective concentration (EC50) worked out at 184 nM. Further, the “% Activity at 1 μM (AUC**)” value at CFTR ΔF508 (1 μM) was 186.6667%.

As to `COCC1CCN(c2cc(C(=O)O)nc3c2c(C2CCC2)nn3-c2ccc(F)cc2)CC1` [compound 657, 3-cyclobutyl-1-(4-fluorophenyl)-4-[4-(methoxymethyl)piperidin-1-yl]-1H-pyrazolo[3,4-b]pyridine-6-carboxylic acid], the “% Activation” value on ΔF508-CFTR is 543%. Also, the concentration for a half-maximal effect (EC50) came out at 306 nM on ΔF508-CFTR and 78 nM on CFTR ΔF508 (read-out: EC50 (nM) (AUC)).
